From patent publication US20240050409A1, “Methods and Compositions for Treating Psychotic Disorders” (SOUND PHARMACEUTICALS INCORPORATED, priority 2014, published 2024)
“Also recorded” adds a separate entry of the source.

Columns and labels:
[1] = test system: perineuronal nets (PNN) in the PFC of NVHL rats; experiment: WFA staining of perineuronal nets (PNN) around PVI in PFC of NVHL rats; type: in vivo, Sprague-Dawley rats; conditions: adult NVHL rats, juvenile treatment
Description: To determine the types of interneurons expressing oxidative stress in NVHL rats, 8-oxo-dG with PV, calbindin (CB) and calretinin (CR) was co-labeled. […] About 50% of PVI were co-labeled with 8-oxo-dG, indicating oxidative stress is pervasive in this cell population. A marker of PVI maturation is Wisteria Floribunda agglutinin (WFA), a lectin that recognizes the perineuronal nets (PNN) enwrapping mature cortical PVI. […] PVI may be highly exposed to increased oxidative stress because they make up the majority of fast-spiking interneurons and their high energy metabolism may generate more reactive oxygen species than non-fast spiking neurons.
(§1) Antioxidant pretreatment regimen: NAC (BioAdvantexPharma, Mississauga, Ontario, Canada) was administered in the drinking water at 900 mg/l. NAC treatment started at P5 or at P35, and previous work in mice has shown that NAC consumed by the dam is transmitted to the pups through her milk (das Neves Duarte et al., 2012). NAC treatment ended at P50. Fresh solutions were prepared every 2-3 days. Ebselen (Sound Pharmaceuticals Inc., Seattle, WA) was administered i.p. 5 days a week starting at P35 until the day of PPI testing (P60). Stock ebselen solution (20 mg/ml DMSO, frozen aliquots) was diluted 1:5 in sterile water and administered at a dose of 10 mg/kg. Control animals received an equivalent concentration of DMSO diluted 1:5 in water. […]

[2] = test system: 3-NT levels in PFC of NVHL rats; experiment: 3-Nitrotyrosine (3-NT) labeling in adult PFC of NVHL rats; type: in vivo, Sprague-Dawley rats; conditions: P61 NVHL rats, juvenile treatment
Description: To assess oxidative stress, DNA oxidation with 8-oxo-7,8-dihydro-20-deoxyguanine (8-oxo-dG) labeling was quantified. […] 3-NT indicates nitration of proteins due to oxidative and nitrosative stress (Radi, 2004), and its increase in NVHL rats was prevented by NAC treatment during development (as shown in FIGS. 9A and 9B). […] A possible explanation for the levels of oxidative stress detected in the adult PFC following an NVHL is the reduced glutamatergic input from ventral hippocampus during development, as blocking NMDA receptors induces oxidative stress in PVI (Behrens et al., 2007).
as §1

CC(=O)N[C@@H](CS)C(=O)O [NAC, N-acetyl cysteine]
effect on reduced WFA staining / WFA-positive PVI (PNN) [1]: restored; also recorded: prevented
effect on increase in 3-NT labeling in PFC [2]: prevented
